pKd, pKi: −log10 of the molar value.
What was measured:
[1] = molecular target: T1, PIN1-CD (catalytic peptidyl-prolyl isomerase domain, devoid of the PIN1 WW domain) (Homo sapiens, UniProt Q13526); experiment: Pin1 peptidyl-prolyl isomerase assay (protease-coupled, spectrophotometric); type: biochemical; details: catalytic PPIase domain without WW domain; 15° C., pH 7.5, 100 μM Suc-AEPF-pNA
T1 construct: PIN1 peptide containing the catalytic peptidyl-prolyl isomerase domain but devoid of the PIN1 WW domain
Description: PIN1 is a phosphorylation dependent peptidyl-prolyl isomerase. The PIN1 assay is a spectrophotometric assay based on the coupled chymotrypsin or subtilisin catalyzed, cis-trans conformation dependent cleavage of a para-nitroanaline containing peptide substrate. […] Cleavage of the isomerized peptide releases para-nitroanaline, which can be monitored by an increase in absorbance at 390 nm. The PIN1 peptide substrate, succinyl-[…]-proline-phenylalanine-paranitroaniline (Suc-AEPF-pNA) (Bachem), is kept in a predominantly cis conformation with an anhydrous TFE/LiCl solvent mixture.
Upon dilution into an aqueous assay mixture containing PIN1, the peptide substrate undergoes PIN1 catalyzed isomerization to the trans conformation. […] To minimize the spontaneous isomerization of the peptide substrate, reactions are performed at 15° C. A typical reaction contains 25 mM MOPS pH 7.5, 0.5 mM TCEP, 2% DMSO, 5 μl of a 25 mg/ml solution of subtilisin Carlsberg, 50 nM PIN1-PPiase, and 100 μM Suc-AEPF-pNA peptide substrate. Reactions are cooled to 15° C. and initiated with the addition of Suc-AEPF-pNA. The absorbance at 390 nm is monitored continuously until all substrate has been converted to the cleaved product. […] The rate constant k is linearly proportional to the concentration of active enzyme present in the assay mixture once the rate constant for the spontaneous isomerization is subtracted. […] Therefore, during inhibition experiments, the IC50, for non-tight binding inhibitors, is essentially the inhibition constant Ki.
(§1) In Table 1, the Ki data reported under the PIN1—CD heading corresponds to testing with PIN1 peptide containing the catalytic peptidyl-prolyl isomerase domain but devoid of the PIN1 WW domain. Similarly, the dissociation constant (Kd) data under PIN1-CD refers to testing with a peptide containing the catalytic PIN1 domain but devoid of the PIN1 WW domain.

[2] = molecular target: T2, PIN1-CD (catalytic PIN1 domain, devoid of the PIN1 WW domain) (Homo sapiens, UniProt Q13526); experiment: Dissociation constant (Kd) with PIN1 catalytic domain; type: binding; details: peptide containing the catalytic PIN1 domain
T2 construct: PIN1 peptide containing the catalytic peptidyl-prolyl isomerase domain but devoid of the PIN1 WW domain
Description: as §1

T2 sequence (Q13526 52-163 limits assumed): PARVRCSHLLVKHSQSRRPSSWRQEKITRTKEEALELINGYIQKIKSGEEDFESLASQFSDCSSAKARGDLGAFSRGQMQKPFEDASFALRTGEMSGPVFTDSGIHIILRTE
T1 sequence (Q13526 52-163 limits assumed): as above

Compound | pKi [1] | pKd [2]
CN(C)c1cccc2c(S(=O)(=O)N[C@@H](COP(=O)(Oc3ccccc3)Oc3ccccc3)Cc3cccc(F)c3)cccc12 [Example 86, Phosphoric acid (R)-2-(5-dimethylamino-naphthalene-1-sulfonylamino)-3-(3-fluoro-phenyl)-propyl ester diphenyl ester] | > 4.00 | –
O=C(N[C@H](CCc1ccccc1)COP(=O)(O)O)c1ccc2ccccc2c1 [Example 37, Phosphoric acid mono-{2-[(1-naphthalen-2-yl-methanoyl)-amino]-4-phenyl-butyl}ester] | > 5.00 | > 5.70
O=C(O)[C@@H]1CCCCN1S(=O)(=O)N[C@@H](COP(=O)(O)O)Cc1ccccc1 [Example 5b2, 1-(2-Phenyl-1-phosphonooxymethyl-ethylsulfamoyl)-piperidine-2-carboxylic acid] | > 5.00 | > 5.00
CC(=O)OCOP(=O)(OCOC(C)=O)OC[C@@H](Cc1cccc(F)c1)NC(=O)c1cc2ccccc2s1 [Example 85, Acetic acid acetoxymethoxy-[(R)-2-[(1-benzo[b]thiophen-2-yl-methanoyl)-amino]-3-(3-fluoro-phenyl)-propoxy]-phosphoryloxymethyl ester] | > 4.00 | –
CC(C)(C)OC(=O)N[C@@H](COP(=O)(O)O)Cc1cccnc1 [Example 30, (1-Phosphonooxymethyl-2-pyridin-3-yl-ethyl)-carbamic acid tert-butyl ester] | > 4.00 | > 5.00
CC(C)C(=O)N[C@@H](COP(=O)(O)O)Cc1ccccc1 [Example 25-15] | > 5.00 | –
O=C(O)[C@@H]1CCCCN1C(=O)N[C@@H](COP(=O)(O)O)Cc1ccccc1 [Example 16d, 1-(2-Phenyl-1-phosphonooxymethyl-ethylcarbamoyl)-piperidine-2-carboxylic acid] | > 5.00 | > 5.00
Cc1nn(-c2ccccc2)nc1C(=O)N[C@@H](COP(=O)(O)O)Cc1ccccc1 [Example 25-7, Phosphoric acid mono-(2-{[1-(5-methyl-2-phenyl-2H-[1,2,3]triazol-4-yl)-methanoyl]-amino}-3-phenyl-propyl)ester] | – | > 6.00
O=C(N[C@@H](COP(=O)(O)O)Cc1ccccc1)c1cc2ccccc2o1 [Example 25-19, Phosphoric acid mono-{2-[(1-benzofuran-2-yl-methanoyl)-amino]-3-phenyl-propyl}ester] | – | > 6.00
COc1cc(C)cc(NC(=O)N[C@@H](COP(=O)(O)O)Cc2ccccc2)c1 [Example 23c, Phosphoric acid mono-{2-[3-(3-methoxy-5-methyl-phenyl)-ureido]-3-phenyl-propyl}ester] | – | > 6.00
O=C(N[C@@H](COP(=O)(O)O)Cc1ccccc1)c1ccco1 [Example 25-14, Phosphoric acid mono-{2-[(1-furan-2-yl-methanoyl)-amino]-3-phenyl-propyl}ester] | – | > 5.00
O=C(N[C@@H](COP(=O)(O)O)Cc1ccccc1)c1ccc2ccccc2c1Br [Example 25-24, Phosphoric acid mono-(2-{[1-(1-bromo-naphthalen-2-yl)-methanoyl]amino}-3-phenyl-propyl)ester] | – | > 6.00
O=C(N[C@@H](COP(=O)(O)O)CC1CCCCC1)c1ccc2ccccc2c1 [Example 33, Phosphoric acid mono-{(R)-3-cyclohexyl-2-[(1-naphthalen-2-yl-methanoyl)-amino]-propyl}ester] | > 5.00 | –
COc1cc(NC(=O)N[C@@H](COP(=O)(O)O)Cc2ccccc2)cc(OC)c1 [Example 23d, Phosphoric acid mono-{2-[3-(3,5dimethoxy-phenyl)-ureido]-3-phenyl-propyl}ester] | – | > 6.00

Second part, the compound after the results:

pKi [1] | pKd [2] | Compound
> 5.00 | – | CN(C)c1cccc2c(S(=O)(=O)N[C@@H](COP(=O)(O)O)Cc3cccc(F)c3)cccc12 [Example 42, Phosphoric acid mono-[(R)-2-(5-dimethylamino-naphthalene-1-sulfonylamino)-3-(3-fluoro-phenyl)-propyl]ester]
> 5.00 | > 5.00 | O=P(O)(O)OC[C@@H](Cc1ccccc1)NS(=O)(=O)N1CCCC[C@H]1c1nnc(Cc2ccccc2)o1 [Example 5b5, Phosphoric acid mono-{(R)-2-[(S)-2-(5-benzyl-[1,3,4]oxadiazol-2-yl)-piperidine-1-sulfonylamino]-3-phenyl-propyl}ester]
> 6.00 | > 6.00 | Cc1cccc(C[C@H](COP(=O)(O)O)NC(=O)c2ccc3ccccc3c2Br)c1 [Example 25-34, Phosphoric acid mono-((R)-2-{[1-(1-bromo-naphthalen-2-yl)-methanoyl]-amino}-3-m-tolyl-propyl)ester]
> 5.00 | – | CC(=O)N[C@@H](COP(=O)(O)O)Cc1ccccc1 [Example 25-40, Phosphoric acid mono-(2-acetylamino-3-phenyl-propyl)ester]
> 6.00 | – | O=C(N[C@@H](COP(=O)(O)O)Cc1ccccc1)c1cccc(Cl)c1 [Example 25-8, Phosphoric acid mono-(2-{[1-(3-chloro-phenyl)-methanoyl]-amino}-3-phenyl-propyl) ester]
> 6.00 | – | O=C(OC(CCCc1ccccc1)CCCc1ccccc1)[C@@H]1CCCCN1C(=O)N[C@@H](COP(=O)(O)O)Cc1cccc(F)c1 [Example 79, (S)-1-[(R)-2-(3-Fluoro-phenyl)-1-phosphonooxymethyl-ethylcarbamoy]-piperidine-2-carboxylic acid 4-phenyl-1-(3-phenyl-propyl)-butyl ester]
> 6.00 | – | O=C(N[C@@H](COP(=O)(O)O)Cc1cccc(F)c1)c1ccc2nc[nH]c2c1 [Example 61, Phosphoric acid mono-[(R)-2-[(1-3H-benzoimidazol-5-yl-methanoyl)-amino]-3-(3-fluoro-phenyl)-propyl]ester]
> 5.00 | > 5.00 | O=C(OCCCCc1ccccc1)[C@@H]1CCCCN1S(=O)(=O)N[C@@H](COP(=O)(O)O)Cc1ccccc1 [Example 5b1, 1-(2-Phenyl-1-phosphonooxymethyl-ethylsulfamoyl)-piperidine-2S-carboxylic acid 4-phenyl-butyl ester]
> 6.00 | > 6.00 | O=C(N[C@@H](COP(=O)(O)O)Cc1cccc(F)c1)c1ccc2ccccc2c1Br [Example 25-31, Phosphoric acid mono-[(R)-2-{[1-(1-bromo-naphthalen-2-yl)-methanoyl]-amino}-3-(3-fluoro-phenyl)-propyl]ester]
> 6.00 | – | CCN(CC)c1ccc2cc(C(=O)N[C@@H](COP(=O)(O)O)Cc3cccc(F)c3)c(=O)oc2c1 [Example 25-33, Phosphoric acid mono-[(R)-2-{[1-(diethylamino-oxo-2H-chromen-3-yl)-methanoyl]-amino}-3-(3-fluoro-phenyl)-propyl]ester]
> 6.00 | > 6.00 | COc1ccc2cc(C(=O)N[C@@H](COP(=O)(O)O)Cc3cccc(C)c3)ccc2c1 [Example 25-35, Phosphoric acid mono-((R)-2-{[1-(6-methoxy-naphthalen-2-yl)-methanoyl]-amino}-3-m-tolyl-propyl)ester]
> 6.00 | – | CC(C)(C)C(=O)N[C@@H](COP(=O)(O)O)Cc1ccccc1 [Example 25-16, Phosphoric acid mono-[(R)-2-(2,2-dimethyl-propanoylamino)-3-phenyl-propyl]ester]
> 6.00 | > 6.00 | O=C(O[C@@H](COP(=O)(O)O)Cc1cccc(F)c1)c1cc2ccccc2s1 [Example 54]
> 6.00 | > 6.00 | O=C(O[C@@H](COP(=O)(O)O)Cc1cccc(F)c1)c1ccc2ccccc2c1 [Example 74, Naphthalene-2-carboxylic acid (R)-1-(3-fluoro-benzyl)-2-phosphonooxy-ethyl ester]
> 6.00 | > 6.00 | COc1ccc2cc(C(=O)N[C@@H](COP(=O)(O)O)Cc3cccc(F)c3)ccc2c1 [Example 25-32, Phosphoric acid mono-((R)-3-(3-fluoro-phenyl)-2-{[1-(6-methoxy-naphthalen-2-yl)-methanoyl]-amino}-propyl)ester]
> 6.00 | > 6.00 | O=C(O[C@@H](COP(=O)(O)O)Cc1ccccc1)c1ccc2ccccc2c1 [Example 49, Naphthalene-2-carboxylic acid (R)-2-phenyl-1-phosphonooxymethyl-ethyl ester]
> 6.00 | – | O=C(N[C@H](Cc1cccc(F)c1)CP(=O)(O)O)c1cc2ccccc2s1 [Example 98, [2-[(Benzo[b]thiophene-2-carbonyl)-amino]-3-(3-fluoro-phenyl)-propyl]-phosphonic acid]
> 6.00 | – | O=C(N[C@@H](CCP(=O)(O)O)Cc1cccc(F)c1)c1cc2ccccc2s1 [Example 71, ([(R)-3-[(Benzo[b]thiophene-2-carbonyl)-amino]4-(3-fluoro-phenyl)-butyl]-phosphonic acid)]

Source: patent US20050250742A1 (Pfizer Inc., priority 2004, published 2005)
